ChEMBL document CHEMBL1144638, “Hydantoins, triazolones, and imidazolones as selective non-hydroxamate inhibitors of tumor necrosis factor-alpha converting enzyme (TACE)” (Bioorg Med Chem Lett, 2007)

Tests used:
[1] = target: Collagenase 3 (Homo sapiens, UniProt P45452); experiment: Binding affinity to MMP13
[2] = target: 72 kDa type IV collagenase (Homo sapiens, UniProt P08253); experiment: Binding affinity to MMP2
[3] = target: Stromelysin-1 (Homo sapiens, UniProt P08254); experiment: Binding affinity to MMP3
[4] = target: T1, Matrilysin (Homo sapiens, UniProt P09237); experiment: Binding affinity to MMP7
T1 sequence (P09237 whole entry): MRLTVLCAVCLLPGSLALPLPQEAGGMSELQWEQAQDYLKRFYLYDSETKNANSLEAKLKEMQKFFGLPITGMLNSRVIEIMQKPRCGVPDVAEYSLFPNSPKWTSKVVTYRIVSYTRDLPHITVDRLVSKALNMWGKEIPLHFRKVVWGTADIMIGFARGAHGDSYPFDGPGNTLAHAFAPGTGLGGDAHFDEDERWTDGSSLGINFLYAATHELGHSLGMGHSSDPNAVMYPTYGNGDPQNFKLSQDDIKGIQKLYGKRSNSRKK

[5] = target: Macrophage metalloelastase (Homo sapiens, UniProt P39900); experiment: Binding affinity to MMP12
[6] = target: Matrix metalloproteinase-9 (Homo sapiens, UniProt P14780); experiment: Binding affinity to MMP9
[7] = target: T2, Interstitial collagenase (Homo sapiens, UniProt P03956); experiment: Binding affinity to MMP1
T2 sequence (P03956 whole entry): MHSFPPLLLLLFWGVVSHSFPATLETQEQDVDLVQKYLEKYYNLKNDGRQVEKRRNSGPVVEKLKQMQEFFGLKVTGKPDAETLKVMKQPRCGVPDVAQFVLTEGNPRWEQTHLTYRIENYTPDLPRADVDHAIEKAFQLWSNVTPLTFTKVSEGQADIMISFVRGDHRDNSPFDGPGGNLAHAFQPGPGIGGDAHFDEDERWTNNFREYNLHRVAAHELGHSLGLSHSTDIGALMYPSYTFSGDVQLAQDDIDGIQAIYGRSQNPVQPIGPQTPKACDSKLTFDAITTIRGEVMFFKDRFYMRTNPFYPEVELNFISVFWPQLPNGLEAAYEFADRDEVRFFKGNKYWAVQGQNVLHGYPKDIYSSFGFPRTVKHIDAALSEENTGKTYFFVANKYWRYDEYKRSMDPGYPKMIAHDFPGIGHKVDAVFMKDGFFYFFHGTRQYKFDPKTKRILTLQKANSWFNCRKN

Chain of 72 kDa type IV collagenase (P08253 whole entry): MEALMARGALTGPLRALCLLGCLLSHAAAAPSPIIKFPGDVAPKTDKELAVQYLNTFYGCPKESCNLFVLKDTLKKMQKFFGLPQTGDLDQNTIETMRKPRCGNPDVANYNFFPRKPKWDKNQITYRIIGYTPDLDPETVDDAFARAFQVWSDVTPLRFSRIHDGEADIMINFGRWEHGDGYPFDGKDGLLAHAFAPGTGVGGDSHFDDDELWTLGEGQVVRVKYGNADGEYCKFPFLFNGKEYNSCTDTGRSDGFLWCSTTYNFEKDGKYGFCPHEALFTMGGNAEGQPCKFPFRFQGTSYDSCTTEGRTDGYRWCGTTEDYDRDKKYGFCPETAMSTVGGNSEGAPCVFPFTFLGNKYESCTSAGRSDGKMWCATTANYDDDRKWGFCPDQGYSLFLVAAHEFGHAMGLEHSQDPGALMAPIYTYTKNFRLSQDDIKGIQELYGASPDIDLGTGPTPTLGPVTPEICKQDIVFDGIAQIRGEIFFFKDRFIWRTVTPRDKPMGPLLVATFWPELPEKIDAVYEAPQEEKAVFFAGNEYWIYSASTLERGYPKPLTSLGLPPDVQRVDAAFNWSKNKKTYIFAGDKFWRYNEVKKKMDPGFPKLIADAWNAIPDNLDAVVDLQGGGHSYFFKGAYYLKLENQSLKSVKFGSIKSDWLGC
Chain of Matrix metalloproteinase-9 (P14780 whole entry): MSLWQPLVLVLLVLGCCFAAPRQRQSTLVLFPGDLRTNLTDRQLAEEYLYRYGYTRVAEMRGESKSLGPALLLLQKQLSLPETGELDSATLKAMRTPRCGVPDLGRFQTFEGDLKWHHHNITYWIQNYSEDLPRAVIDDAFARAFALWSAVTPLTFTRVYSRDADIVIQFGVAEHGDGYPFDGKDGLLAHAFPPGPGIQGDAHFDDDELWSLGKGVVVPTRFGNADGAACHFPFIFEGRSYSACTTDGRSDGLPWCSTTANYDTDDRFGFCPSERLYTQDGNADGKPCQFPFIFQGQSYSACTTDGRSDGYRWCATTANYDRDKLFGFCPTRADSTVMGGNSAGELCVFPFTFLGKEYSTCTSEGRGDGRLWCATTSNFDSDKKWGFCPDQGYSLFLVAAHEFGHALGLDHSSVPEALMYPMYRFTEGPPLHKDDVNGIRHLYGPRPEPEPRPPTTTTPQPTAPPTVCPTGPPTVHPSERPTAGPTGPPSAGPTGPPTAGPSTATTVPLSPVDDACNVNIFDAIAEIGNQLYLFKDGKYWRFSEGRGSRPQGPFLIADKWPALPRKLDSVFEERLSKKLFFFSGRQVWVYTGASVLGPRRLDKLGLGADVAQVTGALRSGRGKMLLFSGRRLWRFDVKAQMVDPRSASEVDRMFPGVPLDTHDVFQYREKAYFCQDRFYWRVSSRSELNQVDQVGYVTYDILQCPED
Chain of Macrophage metalloelastase (P39900 whole entry): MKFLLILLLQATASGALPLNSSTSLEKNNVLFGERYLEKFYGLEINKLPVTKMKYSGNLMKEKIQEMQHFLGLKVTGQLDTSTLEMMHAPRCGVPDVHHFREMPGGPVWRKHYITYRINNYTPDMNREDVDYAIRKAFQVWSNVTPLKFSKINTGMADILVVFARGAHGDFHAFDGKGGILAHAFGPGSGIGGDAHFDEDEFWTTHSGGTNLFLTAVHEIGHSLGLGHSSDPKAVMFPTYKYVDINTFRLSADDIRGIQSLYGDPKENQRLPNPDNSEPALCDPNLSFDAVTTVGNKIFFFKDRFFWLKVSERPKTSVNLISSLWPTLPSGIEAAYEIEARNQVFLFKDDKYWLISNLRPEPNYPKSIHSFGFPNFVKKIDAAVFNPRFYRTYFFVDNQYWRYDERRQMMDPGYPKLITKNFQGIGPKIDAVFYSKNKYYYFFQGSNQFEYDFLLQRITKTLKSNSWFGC
Chain of Stromelysin-1 (P08254 whole entry): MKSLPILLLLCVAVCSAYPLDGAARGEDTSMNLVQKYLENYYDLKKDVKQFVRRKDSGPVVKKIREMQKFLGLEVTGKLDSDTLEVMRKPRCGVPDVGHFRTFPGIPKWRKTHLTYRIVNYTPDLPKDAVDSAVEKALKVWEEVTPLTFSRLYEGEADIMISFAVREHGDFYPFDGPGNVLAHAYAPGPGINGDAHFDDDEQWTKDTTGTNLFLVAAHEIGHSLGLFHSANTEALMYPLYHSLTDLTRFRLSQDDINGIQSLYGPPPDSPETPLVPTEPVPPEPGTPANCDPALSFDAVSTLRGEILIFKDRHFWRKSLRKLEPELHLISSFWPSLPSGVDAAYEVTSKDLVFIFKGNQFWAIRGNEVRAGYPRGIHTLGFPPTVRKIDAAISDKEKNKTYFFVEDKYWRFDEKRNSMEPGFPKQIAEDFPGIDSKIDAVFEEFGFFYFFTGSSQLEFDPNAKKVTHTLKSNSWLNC

Row | Ki [1] | Ki [2] | Ki [3] | Ki [4] | Ki [5] | Ki [6] | Ki [7] | SMILES
1 | > 5.03 µM | 2.47 µM | 0.567 µM | 1 µM | 4.12 µM |  |  | Cc1cc(COc2ccc(S(=O)(=O)NCc3n[nH]c(=O)[nH]3)cc2)c2ccccc2n1
2 |  | > 3.33 µM |  |  | > 5.03 µM | > 2.13 µM | > 4.95 µM | Cc1cc(COc2ccc(S(=O)(=O)NCC3(C)NC(=O)NC3=O)cc2)c2ccccc2n1 (stereo unspecified)
3 | > 5.03 µM | > 3.33 µM | > 4.5 µM | > 6.37 µM | > 6.02 µM |  |  | Cc1cc(COc2ccc(C(=O)Nc3ccccc3Cc3c[nH]c(=O)[nH]3)cc2)c2ccccc2n1

Continued, molecule first:

Row | SMILES | Ki [1] | Ki [2] | Ki [3] | Ki [4] | Ki [5] | Ki [6] | Ki [7]
4 | Cc1cc(COc2ccc(C(=O)Nc3ccccc3C(=O)c3c[nH]c(=O)[nH]3)cc2)c2ccccc2n1 | 4.31 µM | > 3.33 µM | > 4.5 µM | > 6.37 µM | > 6.02 µM |  | 
5 | Cc1cc(COc2ccc(C(=O)Nc3ccccc3Cc3n[nH]c(=O)[nH]3)cc2)c2ccccc2n1 | 4.31 µM | > 3.33 µM | > 4.5 µM | > 6.37 µM | 3.61 µM |  | 
6 | Cc1cc(COc2ccc(C(=O)N[C@H]3CN(C(=O)OC(C)(C)C)C[C@@H]3c3n[nH]c(=O)[nH]3)cc2)c2ccccc2n1 |  | > 3.33 µM |  |  | > 5.03 µM | > 2.13 µM | > 4.95 µM
7 | Cc1cc(COc2ccc(C(=O)NCC3(C)NC(=O)NC3=O)cc2)c2ccccc2n1 (stereo unspecified) |  | > 3.33 µM |  |  | > 5.03 µM | > 2.13 µM | > 4.95 µM
8 | Cc1cc(COc2ccc(C(=O)NCc3n[nH]c(=O)[nH]3)cc2)c2ccccc2n1 |  | > 3.33 µM |  |  | > 5.03 µM | > 2.13 µM | > 4.95 µM
9 | Cc1cc(COc2ccc(C(=O)Nc3ccccc3C3NC(=O)NC3=O)cc2)c2ccccc2n1 (stereo unspecified) | > 5.03 µM | > 3.33 µM | > 4.5 µM | > 6.37 µM | 0.782 µM |  | 
